Experimental data as given in US20230066156A1, “6-SUBSTITUTED, 22-CYANO HYODEOXYCHOLANIC ANALOGUES AND USES THEREOF” (PRECISION BIO-THERAPEUTICS S.R.L., priority 2019, published 2023).

System: THP1 cells
Assay: Relative mRNA expression of pro- and anti-inflammatory genes by Real-Time PCR in LPS-activated THP1 cells
Format: cell-based, human
Conditions: 10 μM, normalized to GAPDH, FIG. 1
Description: THP-1, a human monocytic cell line derived from an acute monocytic leukemia patient, were cultured and maintained at 37° C. and 5% CO2 in RPMI with 10% FBS, 1% glutamine and 1% penicillin/streptomycin. THP1 cells (1.5×10^6) were serum starved for 6 h and then classically activated with LPS (1 ng/ml, L2880; Sigma-Aldrich), and exposed or not to GPBAR1 agonists previously tested in transactivation assay.
Furthermore, selected compounds exert in vitro activity on GPBAR1-target genes reducing the production of pro-inflammatory cytokines (IL-6, TNF-α, IL-1β, […]) in THP1 monocytic/macrophage cells primed with LPS and co-incubated with or without the selected compounds at 10 μM (FIG. 1).
Values are normalized relative to GAPDH mRNA and are expressed as mean±SEM (n=3); #p<0.05.
Colon samples were immediately frozen in liquid nitrogen and stored at −80° C. until used, mechanically homogenated with the aid of a pestle, and the obtained materials re-suspended in 1 ml of Trizol (Thermo Scientific™). THP1 cells were spin-dried at 1300 rpm and then the pellets were re-suspended in 1 ml of Trizol (Thermo Scientific™). The RNA was extracted according to the manufacturer's protocol. After purification from genomic DNA by DNase-I treatment (Thermo Scientific™), 1 μg of RNA from each sample was reverse-transcribed using random hexamer primers with Superscript-II (Thermo Scientific™) in a 20 μL reaction volume; 10 ng cDNA were amplified in a 20 μL solution containing 200 nM of each primer and 10 μL of SYBR Select Master Mix (Thermo Scientific™). All reactions were performed in triplicate, and the thermal cycling conditions were as follows: 3 min at 95° C., followed by 40 cycles of 95° C. for 15 s, 56° C. for 20 s and 72° C. for 30 s, using a Step One Plus machine (Applied Biosystem). The relative mRNA expression was calculated accordingly to the 2^(−ΔCt) method comparing the expression of different genes to that of GAPDH housekeeping. Primers were designed using the software PRIMER3 (http://frodo.wi.mit.edu/primer3/) using published data obtained from the NCBI database. The primer used for murine samples were conducted as follows (forward and reverse): Gapdh (for […] (SEQ ID: 1); rev […] (SEQ ID: 2)), Tnf-α (for […] (SEQ ID: 3); rev […] (SEQ ID: 4)), Il-6 (for […] (SEQ ID: 5); rev […] (SEQ ID: 6)), Il-1β (for […] (SEQ ID: 7); rev […] (SEQ ID: 8)), Il-10 (for […] (SEQ ID: 9); rev […] (SEQ ID: 10)), Gpbar1 (for […] (SEQ ID: 11); rev […] (SEQ ID: 12)). […]

## CC[C@]1(O)C[C@H]2[C@@H]3CC[C@H]([C@H](C)CC#N)[C@@]3(C)CC[C@@H]2[C@@]2(C)CC[C@@H](O)C[C@@H]12 [PBT110B, 3α,6α-dihydroxy-6β-ethyl-24-nor-5β-cholan-23-nitrile]
  IL1-β production (relative mRNA expression): significantly reduced
  IL-6 production (relative mRNA expression): significantly reduced
  TNF-α production (relative mRNA expression): significantly reduced
  expression of anti-inflammatory gene IL-10: increased
